One compound from patent publication US20170211035A1, “BIOLOGICAL INDICATORS” (American Sterilizer Company, priority 2016, published 2017) can be followed below.

The test system of the test is Geobacillus stearothermophilus spores. Nature of the test: Steam resistance of biological indicators in the BIER vessel (kill kinetics, log population versus time). The test is classed as cell-based. As for the experimental part:
In the following examples, the test organism is prepared using a standard lot of Geobacillus stearothermophilus spores suspended in an aqueous carbohydrate solution. In these examples, xylose and dextrose are used as the carbohydrates. Comparative examples are also provided wherein the carbohydrate is not used. In each case, the aqueous suspension is placed in a vial and allowed to dry. The resulting biological indicators are resistance tested. The tests show an unexpected decrease in resistance when the biological indicators are derived from a carbohydrate solution as compared to when no carbohydrate is used.
In these examples, the biological indicators are tested for resistance to steam sterilization using the biological indicator evaluation resistor (BIER) vessel depicted in FIG. 5A. Referring to FIG. 5A, BIER vessel 300 includes chamber 310, door 320, and interior shelf 330 for placement of the biological indicators. Steam, heat and pressure enters chamber 310 as indicated by arrow 340. Vent 350 is provided for the rapid release of steam, heat and pressure. Operation is controlled by a computerized processor, sensors, and valves designed to introduce rapid changes to the environment within the chamber 310.
Referring to FIG. 5B, the process cycle used in the BIER vessel includes six phases, these phases being numbered as phases 1-6 in FIG. 5B. These phases can be described as follows:
The term “log population” refers to the log of the number of colony-forming units (cfu) of viable spores in the test sample. For example, a log population of 6 refers to 10^6 (or 1,000,000) viable colony-forming units of spores in the test sample.

Each structure is given as a SMILES string.

Turning to `O=C[C@H](O)[C@@H](O)[C@H](O)CO` [xylose], the “resistance (time)” value is on record as “approximately 4 minutes” (steam at 121° C., spores dried from suspension in 0.5M carbohydrate solution) and “approximately 1.5 minutes” (steam at 132° C., spores dried from suspension in xylose solution as in Example 1 (1.67 M)). Further, the “time for a 6 log reduction (kill kinetics)” value (steam at 121° C., spores dried from suspension in 1.67 M xylose solution) is given as “approximately 5 minutes”.
